Measured values: patent publication US10669276B2, “Fused pyrimidine derivatives” (Hoffmann-La Roche Inc., priority 2016, dated 2020)

Biological target: γ-secretase (Homo sapiens (Human), UniProt P49768)
Test: Cellular γ-secretase assay (Aβ42 secretion, AlphaLisa)
Format: cell-based
Details: inhibition of Aβ42 secretion; human neuroglioma H4 cells overexpressing human APP695 Swedish double mutation; 24 hr compound incubation
Experimental: Human neuroglioma H4 cells overexpressing human APP695 with the Swedish double mutation (K595N/M596L) were plated at 30,000 cells/well/100 μl in 96-well plates in IMDM media containing 10% FCS, 0.2 mg/l Hygromycin B and incubated at 37° C., 5% CO2.
3-4 hr post plating, compounds are a diluted in media and 50 μl is added as […] concentrate to achieve the final concentration. Compound incubation is performed for 24 hr. Final doses typically range from 4 μM down to 0.0013 μM in half-log steps resulting in an eight point dose response curve. Appropriate controls using vehicle only and reference compound were applied to this assay. The final concentration of Me2SO was 0.4%.
After incubation at 37° C., 5% CO2, the supernatant was subjected to quantification of secreted Aβ42 by the means of an AlphaLisa assay kit (Human Amyloid beta 1-42 Kit: Cat # AL203C, Perkin Elmer). 20 μl of the cell culture supernatant was transferred to an assay plate. Then 10 μl of a mixture of the AlphaLisa coupled capture antibody and the biotinylated detection antibody was added and incubated for 3 hours at room temperature while softly shaking the assay plate. After a further addition of 20 μl of the Donor beads the assay plate was incubated for 30 min at room temperature and constant shaking without exposure to direct light. The assay plate was then read on a Paradigm AlphaLisa Reader using the build-in program with excitation at 680 nm and emission at […]. The measured signals were then used to calculate IC50 values for inhibition of Aβ42 secretion by nonlinear regression fit analysis using XLfit 5.3 software (IDBS).

Row | EC50 [nM] | Structure (SMILES)
1 | 5 | CNc1nc(Nc2cnc(-n3cnc(C)c3)c(OC)c2)nc2c1C(C)(C)CN2c1cccc(F)c1F [Example 44, 7-(2,3-Difluorophenyl)-N2-(5-methoxy-6-(4-methyl-1H-imidazol-1-yl)pyridin-3-yl)-N4,5,5-trimethyl-6,7-dihydro-5H-pyrrolo[2,3-d]pyrimidine-2,4-diamine]
2 | 4 | CNc1nc(Nc2ccc(-n3cnc(C)c3)c(F)c2)nc2c1C(C)(C)CN2c1ccc(F)cc1Cl [Example 45, 7-(2-Chloro-4-fluorophenyl)-N2-(3-fluoro-4-(4-methyl-1H-imidazol-1-yl)phenyl)-N4,5,5-trimethyl-6,7-dihydro-5H-pyrrolo[2,3-d]pyrimidine-2,4-diamine]
3 | 55 | CNc1nc(Nc2ccc(-c3nnc(C)o3)cc2)nc2c1C(C)(C)CN2c1ccc(F)cc1 [Example 47, 7-(4-Fluorophenyl)-N4,5,5-trimethyl-N2-(4-(5-methyl-1,3,4-oxadiazol-2-yl)phenyl)-6,7-dihydro-5H-pyrrolo[2,3-d]pyrimidine-2,4-diamine]
